Results from patent US9554990B2, “Cholecystokinin secretion-promoting composition” (J-OIL MILLS, INC., priority 2012, dated 2017).

Key:
[1] = system: Mouse intestinal CCK-producing cell line STC-1; experiment: Confirmation test of CCK secretion-stimulating activity (CCK in supernatant, enzyme immunoassay); type: cell-based; design: key to CCK secretion-promoting activity Significant difference from vehicle Group 3 / CCK secretion-promoting activity Significant difference from vehicle Group 4 / CCK secretion-promoting activity Significant difference from vehicle Group 1 / CCK secretion-promoting activity Significant difference from vehicle Group 5: *: A significant difference (P < 0.05) was found; —: No significant difference was found; conditions: for CCK secretion-promoting activity Significant difference from vehicle Group 1: experimental group 1; for CCK secretion-promoting activity Significant difference from vehicle Group 3: experimental group 3; for CCK secretion-promoting activity Significant difference from vehicle Group 4: experimental group 4; for CCK secretion-stimulating activity (in words): single test material
Method: As a condition for maximizing the secretion amount of CCK in a cell test system, 70 mM KCl (positive control) causing hormone release by depolarization was prepared.
Since the number of materials that can be tested at once is restricted, the test materials were divided into five groups as shown in Table 1. In order to solve the discontinuity between experimental groups, every group included trans,trans-2,4-decadienal. Each test material was tested three times, and the average value of the results was calculated.
The test materials were each dissolved in ethanol, and each solution was diluted with Hepes buffer (140 mM NaCl, 4.5 mM KCl, 20 mM Hepes, 1.2 mM CaCl2, 1.2 mM MgCl2, and 10 mM D-glucose, pH 7.4) to give a 0.1 vol % ethanol solution, which was used as the evaluation solution.
Mouse intestinal CCK-producing cell line STC-1 was cultured in a 48-well plate for two to three days until subconfluent in a Dulbecco's modified Eagle's medium containing 10% bovine fetal serum at 37° C. in the presence of 5% CO2. After the wells were washed with Hepes buffer, 100 μL of the evaluation solution containing 100 μM of a test material was added to a well, followed by incubation at 37° C. for 60 minutes. The supernatant was collected and was centrifuged (800×g, 5 min, 4° C.) to precipitate the exfoliated cells. The resulting supernatant (80 μL) was collected and was cryopreserved. The concentration of CCK in the supernatant was measured with a commercially available enzyme immunoassay kit (manufactured by Phoenix Pharmaceuticals, Inc.).
In order to investigate the change in the secretion amount of CCK by addition of a test material to the cells in a general condition, a value obtained by subtracting the measured value of the vehicle from the measured value of a sample was used as the true value, and the score of the CCK secretion-stimulating activity was determined by dividing the true value by the value of 70 mM KCl as a control. The variance was analyzed for each experimental group. The difference in variance between an experimental group and the vehicle was examined for determining whether there was a significant difference (P<0.05). […]

[2] = swallowing; cited from earlier work
[3] = Table 2A, 100 μM test material, 60 minutes, STC-1, (sample minus vehicle) divided by value of 70 mM KCl control
[4] = Table 2B, 100 μM test material, 60 minutes, STC-1, (sample minus vehicle) divided by value of 70 mM KCl control
[5] = Table 3, single ingredient (100 μM) or control, relative to 70 mM KCl

## [Cl-].[K+] [70 mM KCl, KCl]
[1]; [3]
  CCK secretion-promoting activity Score: 1
[1]; [4]
  CCK secretion-promoting activity Score: 1
[1]; [5]
  CCK secretion-promoting activity Score: 1

## CCCC=O.CCCC=O [Comparative Example 1, butanal (butyraldehyde)]
[1]; [4]
  CCK secretion-promoting activity Score: 0.017
[1]; Table 2B, 100 μM
  CCK secretion-promoting activity Significant difference from vehicle Group 1: —

## CC/C=C\CCC=O [Comparative Example 11, cis-4-heptenal]
[1]; [4]
  CCK secretion-promoting activity Score: −0.001

## C/C=C/C=C/C=O [Example 1, trans,trans-2,4-hexadienal]
[1]; [3]
  CCK secretion-promoting activity Score: 0.840
[1]; Table 2A, 100 μM
  CCK secretion-promoting activity Significant difference from vehicle Group 1: * (A significant difference (P < 0.05) was found)

## CC/C=C/C=C/C=O [Example 2, trans,trans-2,4-heptadienal]
[1]; [3]
  CCK secretion-promoting activity Score: 0.885
[1]; Table 2A, 100 μM
  CCK secretion-promoting activity Significant difference from vehicle Group 1: * (A significant difference (P < 0.05) was found)

## CCCC/C=C/C=C/C=O [Example 3, trans,trans-2,4-nonadienal]
[1]; [3]
  CCK secretion-promoting activity Score: 0.975
[1]; Table 2A, 100 μM
  CCK secretion-promoting activity Significant difference from vehicle Group 1: * (A significant difference (P < 0.05) was found)

## CCCCC/C=C/C=C/C=O [Example 4, trans,trans-2,4-decadienal]
[1]; [3]
  CCK secretion-promoting activity Score: 1.088
[1]; Table 2A, 100 μM
  CCK secretion-promoting activity Significant difference from vehicle Group 1: * (A significant difference (P < 0.05) was found)
  CCK secretion-promoting activity Significant difference from vehicle Group 3: * (A significant difference (P < 0.05) was found)
  CCK secretion-promoting activity Significant difference from vehicle Group 4: * (A significant difference (P < 0.05) was found)
[1]; Table 3, single ingredient (100 μM)
  CCK secretion-promoting activity Significant difference from vehicle: * (A significant difference (P < 0.05) was found)
[1]; [5]
  CCK secretion-promoting activity Score: 1.088
[1]; STC-1
  CCK secretion-stimulating activity (in words): the highest

## CCCCCCC/C=C/C=C/C=O [Example 5, trans,trans-2,4-dodecadienal]
[1]; [3]
  CCK secretion-promoting activity Score: 0.720

## C/C=C/C=O.C/C=C/C=O [Example 6, trans-2-butenal (crotonaldehyde)]
[1]; [3]
  CCK secretion-promoting activity Score: 0.644
[1]; Table 2A, 100 μM
  CCK secretion-promoting activity Significant difference from vehicle Group 1: * (A significant difference (P < 0.05) was found)

## CCCC/C=C/C=O [Example 7, trans-2-heptenal]
[1]; [3]
  CCK secretion-promoting activity Score: 0.624
[1]; Table 2A, 100 μM
  CCK secretion-promoting activity Significant difference from vehicle Group 1: * (A significant difference (P < 0.05) was found)

## CCCCC/C=C/C=O [Example 8, trans-2-octenal]
[1]; [3]
  CCK secretion-promoting activity Score: 0.698
[1]; Table 2A, 100 μM
  CCK secretion-promoting activity Significant difference from vehicle Group 4: * (A significant difference (P < 0.05) was found)

## CCCCCC/C=C/C=O [Example 9, trans-2-nonenal]
[1]; [3]
  CCK secretion-promoting activity Score: 0.491
[1]; Table 2A, 100 μM
  CCK secretion-promoting activity Significant difference from vehicle Group 3: —

## CCCCC/C=C/CCC=O [Example 10, trans-4-decenal]
[1]; [3]
  CCK secretion-promoting activity Score: 0.441

## CCCCC/C=C\CCC=O [Example 11, cis-4-decenal]
[1]; [3]
  CCK secretion-promoting activity Score: 0.377
[1]; Table 2A, 100 μM
  CCK secretion-promoting activity Significant difference from vehicle Group 4: —

## C=CC(=O)O [Example 12, acrylic acid]
[1]; [3]
  CCK secretion-promoting activity Score: 0.957
[1]; Table 2A, 100 μM
  CCK secretion-promoting activity Significant difference from vehicle Group 4: * (A significant difference (P < 0.05) was found)

## CCCCCCCC=O [compound 2, octanal]
[1]; [4]
  CCK secretion-promoting activity Score: −0.004
[1]; Table 2B, 100 μM
  CCK secretion-promoting activity Significant difference from vehicle Group 3: —

## CCCCCCCCC=O [compound 3, nonanal]
[1]; [4]
  CCK secretion-promoting activity Score: −0.003
[1]; Table 2B, 100 μM
  CCK secretion-promoting activity Significant difference from vehicle Group 1: —

## CCCCCCCCCC=O [compound 4, decanal]
[1]; [4]
  CCK secretion-promoting activity Score: 0.042

## CCCCCCCCCCC=O [compound 5, undecanal]
[1]; [4]
  CCK secretion-promoting activity Score: 0.189

## CCCCCCCCCCCC=O [compound 6, dodecanal]
[1]; [4]
  CCK secretion-promoting activity Score: −0.093

## CCCCCCCCCCCCC=O [compound 7, tridecanal]
[1]; [4]
  CCK secretion-promoting activity Score: 0.049

## CCCCCCC/C=C/C=O [compound 8, trans-2-decenal]
[1]; [4]
  CCK secretion-promoting activity Score: 0.046

## CCCCCCCC/C=C/C=O [compound 9, trans-2-undecenal]
[1]; [4]
  CCK secretion-promoting activity Score: −0.137
[1]; Table 2B, 100 μM
  CCK secretion-promoting activity Significant difference from vehicle Group 3: —

## CCCCCCCCC/C=C/C=O [compound 10, trans-2-dodecenal]
[1]; [4]
  CCK secretion-promoting activity Score: −0.319
[1]; Table 2B, 100 μM
  CCK secretion-promoting activity Significant difference from vehicle Group 3: —

## CC/C=C\CCCCC=O [compound 12, cis-6-nonenal]
[1]; [4]
  CCK secretion-promoting activity Score: −0.648
[1]; Table 2B, 100 μM
  CCK secretion-promoting activity Significant difference from vehicle Group 3: —

## CC/C=C\CCCCCC=O [compound 13, cis-7-decenal]
[1]; [4]
  CCK secretion-promoting activity Score: 0.274

## C=CCCCCCCCCC=O [compound 14, trans-10-undecenal]
[1]; [4]
  CCK secretion-promoting activity Score: −0.458
[1]; Table 2B, 100 μM
  CCK secretion-promoting activity Significant difference from vehicle Group 3: —

## C=CCO [compound 15, 2-propen-1-ol]
[1]; [4]
  CCK secretion-promoting activity Score: 0.557
[1]; Table 2B, 100 μM
  CCK secretion-promoting activity Significant difference from vehicle Group 4: —

## CCCCC/C=C/CO [compound 16, trans-2-octen-1-ol]
[1]; [4]
  CCK secretion-promoting activity Score: 0.321
[1]; Table 2B, 100 μM
  CCK secretion-promoting activity Significant difference from vehicle Group 4: —

## CCCCC/C=C\CCCO [compound 17, cis-4-decen-1-ol]
[1]; [4]
  CCK secretion-promoting activity Score: −0.171
[1]; Table 2B, 100 μM
  CCK secretion-promoting activity Significant difference from vehicle Group 4: —

## CCCCCCCCO [compound 18, 1-octanol]
[1]; [4]
  CCK secretion-promoting activity Score: −0.134

## CCCCCCCCCCO [compound 19, n-decyl alcohol]
[1]; [4]
  CCK secretion-promoting activity Score: 0.070

## CCCCCCCCCCCCO [compound 20, dodecyl alcohol]
[1]; [4]
  CCK secretion-promoting activity Score: −0.304

## CCCCCCCCCCCCCO [compound 21, n-tridecyl alcohol]
[1]; [4]
  CCK secretion-promoting activity Score: −0.225

## CCCCCC/C=C/C(C)=O [compound 22, trans-3-decen-2-one]
[1]; [4]
  CCK secretion-promoting activity Score: 0.169

## CCCCC/C=C/C(=O)O [compound 23, trans-2-octenoic acid]
[1]; [4]
  CCK secretion-promoting activity Score: 0.146
[1]; Table 2B, 100 μM
  CCK secretion-promoting activity Significant difference from vehicle Group 4: —

## CCCCCCCC(=O)O [compound 24, n-octanoic acid]
[1]; [4]
  CCK secretion-promoting activity Score: −0.140

## CCCCCCCCCC(=O)O [compound 25, decanoic acid]
[1]; [4]
  CCK secretion-promoting activity Score: −0.207

## CCCCCCCCCCCC(=O)O [compound 26, lauric acid]
[1]; [4]
  CCK secretion-promoting activity Score: −0.225

## CCCCCCCCCCCCC(=O)O [compound 27, n-tridecanoic acid]
[1]; [4]
  CCK secretion-promoting activity Score: −0.234

## CCCCCCCCCC [compound 28, decane]
[1]; [4]
  CCK secretion-promoting activity Score: −0.224

## C/C=C\CCCCCCC [compound 29, cis-2-decene]
[1]; [4]
  CCK secretion-promoting activity Score: −0.208

## C=CC=O [propenal]
[1]; STC-1
  CCK secretion-stimulating activity (in words): has a CCK-secreting activity
[2]
  GHS class of acute toxicity: class 2

## trans,trans-1,9-decadiene [compound 30]
[1]; [4]
  CCK secretion-promoting activity Score: −0.211
[1]; Table 2B, experimental group 5, 100 μM
  CCK secretion-promoting activity Significant difference from vehicle Group 5: —
